Results on 1 compound are retold here after patent US7501513B2, “Immunosuppressive effects of pteridine derivatives” (4 AZA Bioscience NV, priority 2003, dated 2009).

For one test, the system named is IL-5. The experiment in a line: Inhibition of the release of IL-5. The following applies: at 0.1 μM/l. It is filed as cell-based. The protocol: (§1) 2-amino-4-morpholino-6-(3,4-dimethoxyphenyl)pteridine (a compound known from WO 00/39129) was tested, according to experimental procedures well established in the art, in the inhibition of two cytokines, IL-5 and IL-10, known to be involved in the development of asthma and other forms of severe allergic conditions.

A further test has as its system B16BL/6 melanoma cells. The experiment in a line: Inhibition of the metastasis of melanoma cells in mice. The test is classed as in vivo, C57BL/6 mice. The following applies: 20 mg/kg intraperitoneously, three times a week for two weeks; control group 80%. As to the method: C57BL/6 mice were injected with 1.5×10^6 B16BL/6 melanoma cells and were divided into 2 groups. Five days after the injection of the tumor cells, the two groups of animals were administered intraperitoneously, three times a week for two subsequent weeks, either (treated group) 20 mg/kg of 2-amino-4-morpholino-6-(3,4-dimethoxyphenyl)pteridine (a compound known from WO 00/39129) or (control group) the vehicle (5% DMSO in phosphate buffered saline). At the end of the experiment, all surviving tumor-bearing mice were sacrificed and examined in order to assess the absence or presence of the black metastases in inguinal and/or para-aortic lymph nodes (macroscopic metastasis). The findings were confirmed by histology, and the experiment done twice.

A further test has as its system IL-10. Kind of test: Inhibition of the release of IL-10. The test is classed as cell-based. The following applies: at 0.1 μM/l. The protocol: as §1

With `COc1ccc(-c2cnc3nc(N)nc(N4CCOCC4)c3n2)cc1OC` [2-amino-4-morpholino-6-(3,4-dimethoxyphenyl)pteridine], the inhibition at 0.1 µM was determined as 70% in the test on IL-5 and 39% in the test with IL-10. Further, the “animals with metastases (inguinal and/or para-aortic lymph nodes)” value in the test on B16BL/6 melanoma cells was determined as 33%.

As a reminder, the inhibition is the percentage by which the read-out fell short of the control.
